Test results taken from paper PMC7531004, “Discovery of gramicidin A analogues with altered activities by multidimensional screening of a one-bead-one-compound library” (Nature Communications, 2020).
Where a SMILES comes first, the peptide text is derived from it. [ ]: non-standard residue; d: D form. The star is where a group is joined. NHCH2CH2OH = OCCN*; For = O=C*

Experiments:
[1] = system: P388 mouse leukemia cells; settings: 92 h
In short: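 First, library peptide stocks are diluted 250-fold in RPMI1640 with 10% heat-inactivated FBS. Next, they are mixed with P388 cells to give 1 × 10^4 cells/mL and incubated 92 h at 37 °C, 5% CO2. Finally, viability (%) is scored by WST-1 absorbance at 415 nm.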

[2] = H+/Na+ transport assay of bead-derived peptides (one-point); format: biochemical; design: key: relative activity; mean of two control wells = 1.00; settings: bead-derived peptide solution, EYPC/EYPG LUVs;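 also: relative to parent gramicidin A activity set to 1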
In short: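 Pyranine (1.0 mM)-loaded LUVs containing egg yolk phosphatidylglycerol were prepared by film hydration, sonication and extrusion, then mixed with diluted bead-derived peptide in 96-well format and vortexed 30 min at room temperature. Fluorescence was normalized between untreated LUVs (0%) and Triton X-100 lysis (100%).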

[3] = system: Streptococcus pyogenes SSI-9; assay: Antibacterial activity assay of bead-derived peptides (three concentrations); format: cell-based; design: key: +++: inhibition by the 640-fold diluted peptide solution; ++: inhibition by the 160-fold diluted solution; +: inhibition by the 40-fold diluted solution; -: no inhibition; settings: S. pyogenes, bead-derived peptide solution, three concentrations
In short: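 Three stock dilutions per peptide (none, 4-fold, 16-fold in DMSO) are screened in 96-well format. The medium is blood-supplemented cation-adjusted MHB, inoculated with 2 × 10^5 CFU S. pyogenes SSI-9. Growth is read as cell precipitation at 18 h, 37 °C.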

| SMILES | cell viability/% [1] [%] | H+/Na+ transport activity normalized against the value of 1 (1.00) [2] | antibacterial activity [3] |
| --- | --- | --- | --- |
| CC(C)C[C@@H](NC(=O)[C@H](C)NC(=O)CNC(=O)[C@@H](NC=O)C(C)C)C(=O)N[C@@H](C)C(=O)N[C@@H](C(=O)N[C@H](C(=O)N[C@@H](C(=O)N[C@@H](Cc1c[nH]c2ccccc12)C(=O)N[C@@H](C(=O)N[C@@H](Cc1c[nH]c2ccccc12)C(=O)N[C@H](CC(C)C)C(=O)N[C@@H](Cc1c[nH]c2ccccc12)C(=O)N[C@@H](C(=O)N[C@@H](Cc1c[nH]c2ccccc12)C(=O)NCCO)C(C)C)C(C)C)C(C)C)C(C)C)C(C)C [compound 6861] (For-VGA[dL]A[dV]V[dV]W[dV]W[dL]W[dV]W-NHCH2CH2OH) | 100.0 | 1.18 | + |
| CNC(=O)C[C@@H](NC(=O)[C@@H](NC(=O)[C@H](NC(=O)[C@H](C)NC(=O)[C@H](NC(=O)[C@H](C)NC(=O)CNC(=O)[C@@H](NC=O)C(C)C)C(C)C)C(C)C)C(C)C)C(=O)N[C@@H](Cc1c[nH]c2ccccc12)C(=O)N[C@H](CC(C)C)C(=O)N[C@@H](Cc1c[nH]c2ccccc12)C(=O)N[C@H](CC(C)C)C(=O)N[C@@H](Cc1c[nH]c2ccccc12)C(=O)N[C@H](CC(C)C)C(=O)N[C@@H](Cc1c[nH]c2ccccc12)C(=O)NCCO [compound 6862] (For-VGA[dV]A[dV]V[dD](NHMe)W[dL]W[dL]W[dL]W-NHCH2CH2OH) | 100.0 | 1.31 | - |
| CC(C)C[C@@H](NC(=O)[C@H](C)NC(=O)CNC(=O)[C@@H](NC=O)C(C)C)C(=O)N[C@@H](C)C(=O)N[C@H](CC(C)C)C(=O)N[C@H](C(=O)N[C@@H](C(=O)N[C@@H](Cc1c[nH]c2ccccc12)C(=O)N[C@@H](C(=O)N[C@@H](Cc1c[nH]c2ccccc12)C(=O)N[C@@H](C(=O)N[C@@H](Cc1c[nH]c2ccccc12)C(=O)N[C@H](CC(C)C)C(=O)N[C@@H](Cc1c[nH]c2ccccc12)C(=O)NCCO)[C@H](C)O)C(C)C)C(C)C)C(C)C [compound 6876] (For-VGA[dL]A[dL]V[dV]W[dV]W[dT]W[dL]W-NHCH2CH2OH) | 100.0 | 1.13 | - |
| CC(C)C[C@@H](NC(=O)[C@H](C)NC(=O)[C@H](NC(=O)[C@H](C)NC(=O)CNC(=O)[C@@H](NC=O)C(C)C)C(C)C)C(=O)N[C@H](C(=O)N[C@@H](C(=O)N[C@@H](Cc1c[nH]c2ccccc12)C(=O)N[C@H](CC(C)C)C(=O)N[C@@H](Cc1c[nH]c2ccccc12)C(=O)N[C@@H](C(=O)N[C@@H](Cc1c[nH]c2ccccc12)C(=O)N[C@@H](C(=O)N[C@@H](Cc1c[nH]c2ccccc12)C(=O)NCCO)C(C)C)C(C)C)C(C)C)C(C)C [compound 6888] (For-VGA[dV]A[dL]V[dV]W[dL]W[dV]W[dV]W-NHCH2CH2OH) | 78.6 | 1.23 | + |
| CNC(=O)C[C@@H](NC(=O)[C@H](Cc1c[nH]c2ccccc12)NC(=O)[C@H](NC(=O)[C@@H](NC(=O)[C@@H](CC(C)C)NC(=O)[C@H](C)NC(=O)[C@@H](CC(C)C)NC(=O)[C@H](C)NC(=O)CNC(=O)[C@@H](NC=O)C(C)C)C(C)C)C(C)C)C(=O)N[C@@H](Cc1c[nH]c2ccccc12)C(=O)N[C@H](CC(C)C)C(=O)N[C@@H](Cc1c[nH]c2ccccc12)C(=O)N[C@@H](C(=O)N[C@@H](Cc1c[nH]c2ccccc12)C(=O)NCCO)C(C)C [compound 6889] (For-VGA[dL]A[dL]V[dV]W[dD](NHMe)W[dL]W[dV]W-NHCH2CH2OH) | 100.0 | 1.10 | - |
| CNC(=O)C[C@@H](NC(=O)[C@@H](NC(=O)[C@H](NC(=O)[C@H](C)NC(=O)[C@H](NC(=O)[C@H](C)NC(=O)CNC(=O)[C@@H](NC=O)C(C)C)C(C)C)C(C)C)C(C)C)C(=O)N[C@@H](Cc1c[nH]c2ccccc12)C(=O)N[C@H](CC(C)C)C(=O)N[C@@H](Cc1c[nH]c2ccccc12)C(=O)N[C@H](CC(C)C)C(=O)N[C@@H](Cc1c[nH]c2ccccc12)C(=O)N[C@@H](C(=O)N[C@@H](Cc1c[nH]c2ccccc12)C(=O)NCCO)C(C)C [compound 6899] (For-VGA[dV]A[dV]V[dD](NHMe)W[dL]W[dL]W[dV]W-NHCH2CH2OH) | 100.0 | 1.12 | - |
| CC(C)C[C@@H](NC(=O)[C@H](C)NC(=O)[C@H](NC(=O)[C@H](C)NC(=O)CNC(=O)[C@@H](NC=O)C(C)C)C(C)C)C(=O)N[C@H](C(=O)N[C@H](CC(C)C)C(=O)N[C@@H](Cc1c[nH]c2ccccc12)C(=O)N[C@H](CC(C)C)C(=O)N[C@@H](Cc1c[nH]c2ccccc12)C(=O)N[C@@H](C(=O)N[C@@H](Cc1c[nH]c2ccccc12)C(=O)N[C@@H](C(=O)N[C@@H](Cc1c[nH]c2ccccc12)C(=O)NCCO)[C@H](C)O)C(C)C)C(C)C [compound 6943] (For-VGA[dV]A[dL]V[dL]W[dL]W[dV]W[dT]W-NHCH2CH2OH) | 100.0 | 1.02 | - |
| CC(C)C[C@@H](NC(=O)[C@H](C)NC(=O)CNC(=O)[C@@H](NC=O)C(C)C)C(=O)N[C@@H](C)C(=O)N[C@H](CC(C)C)C(=O)N[C@H](C(=O)N[C@@H](C(=O)N[C@@H](Cc1c[nH]c2ccccc12)C(=O)N[C@@H](C(=O)N[C@@H](Cc1c[nH]c2ccccc12)C(=O)N[C@@H](C(=O)N[C@@H](Cc1c[nH]c2ccccc12)C(=O)N[C@H](CC(C)C)C(=O)N[C@@H](Cc1c[nH]c2ccccc12)C(=O)NCCO)C(C)C)[C@H](C)O)C(C)C)C(C)C [compound 6950] (For-VGA[dL]A[dL]V[dV]W[dT]W[dV]W[dL]W-NHCH2CH2OH) | 100.0 | 1.06 | - |
| CC(C)C[C@@H](NC(=O)[C@H](C)NC(=O)[C@H](NC(=O)[C@H](C)NC(=O)CNC(=O)[C@@H](NC=O)C(C)C)[C@H](C)O)C(=O)N[C@H](C(=O)N[C@H](CC(C)C)C(=O)N[C@@H](Cc1c[nH]c2ccccc12)C(=O)N[C@@H](C(=O)N[C@@H](Cc1c[nH]c2ccccc12)C(=O)N[C@@H](C(=O)N[C@@H](Cc1c[nH]c2ccccc12)C(=O)N[C@H](CC(C)C)C(=O)N[C@@H](Cc1c[nH]c2ccccc12)C(=O)NCCO)C(C)C)[C@H](C)O)C(C)C [compound 7015] (For-VGA[dT]A[dL]V[dL]W[dT]W[dV]W[dL]W-NHCH2CH2OH) | 100.0 | 1.07 | - |
| CC(C)C[C@@H](NC(=O)[C@H](C)NC(=O)CNC(=O)[C@@H](NC=O)C(C)C)C(=O)N[C@@H](C)C(=O)N[C@H](CC(C)C)C(=O)N[C@H](C(=O)N[C@@H](C(=O)N[C@@H](Cc1c[nH]c2ccccc12)C(=O)N[C@@H](C(=O)N[C@@H](Cc1c[nH]c2ccccc12)C(=O)N[C@H](CC(C)C)C(=O)N[C@@H](Cc1c[nH]c2ccccc12)C(=O)N[C@H](CC(C)C)C(=O)N[C@@H](Cc1c[nH]c2ccccc12)C(=O)NCCO)[C@H](C)O)C(C)C)C(C)C [compound 7067] (For-VGA[dL]A[dL]V[dV]W[dT]W[dL]W[dL]W-NHCH2CH2OH) | 100.0 | 1.02 | - |
| CC(C)C[C@@H](NC(=O)[C@H](C)NC(=O)CNC(=O)[C@@H](NC=O)C(C)C)C(=O)N[C@@H](C)C(=O)N[C@H](CC(C)C)C(=O)N[C@H](C(=O)N[C@@H](C(=O)N[C@@H](Cc1c[nH]c2ccccc12)C(=O)N[C@@H](C(=O)N[C@@H](Cc1c[nH]c2ccccc12)C(=O)N[C@@H](C(=O)N[C@@H](Cc1c[nH]c2ccccc12)C(=O)N[C@@H](C(=O)N[C@@H](Cc1c[nH]c2ccccc12)C(=O)NCCO)C(C)C)C(C)C)C(C)C)C(C)C)C(C)C [compound 7100] (For-VGA[dL]A[dL]V[dV]W[dV]W[dV]W[dV]W-NHCH2CH2OH) | 100.0 | 1.07 | - |
| CC(C)C[C@@H](NC(=O)[C@H](C)NC(=O)[C@H](NC(=O)[C@H](C)NC(=O)CNC(=O)[C@@H](NC=O)C(C)C)C(C)C)C(=O)N[C@H](C(=O)N[C@@H](C(=O)N[C@@H](Cc1c[nH]c2ccccc12)C(=O)N[C@@H](C(=O)N[C@@H](Cc1c[nH]c2ccccc12)C(=O)N[C@H](CC(C)C)C(=O)N[C@@H](Cc1c[nH]c2ccccc12)C(=O)N[C@@H](C(=O)N[C@@H](Cc1c[nH]c2ccccc12)C(=O)NCCO)C(C)C)C(C)C)[C@H](C)O)C(C)C [compound 7131] (For-VGA[dV]A[dL]V[dT]W[dV]W[dL]W[dV]W-NHCH2CH2OH) | 100.0 | 1.08 | - |
| CC(C)C[C@@H](NC(=O)[C@H](C)NC(=O)[C@H](NC(=O)[C@H](C)NC(=O)CNC(=O)[C@@H](NC=O)C(C)C)[C@H](C)O)C(=O)N[C@H](C(=O)N[C@H](CC(C)C)C(=O)N[C@@H](Cc1c[nH]c2ccccc12)C(=O)N[C@@H](C(=O)N[C@@H](Cc1c[nH]c2ccccc12)C(=O)N[C@H](CC(C)C)C(=O)N[C@@H](Cc1c[nH]c2ccccc12)C(=O)N[C@@H](C(=O)N[C@@H](Cc1c[nH]c2ccccc12)C(=O)NCCO)C(C)C)[C@H](C)O)C(C)C [compound 7135] (For-VGA[dT]A[dL]V[dL]W[dT]W[dL]W[dV]W-NHCH2CH2OH) | 100.0 | 1.09 | - |
